According to article PMC12196494, “Application of Solvent Evaporation to Generate Supersaturated Lipid-Based Formulations: Investigation of Drug Load and Formulation Quality” (Pharmaceutics, 2025):
Converted amounts (≈) assume the structure as drawn. Like-named read-outs stand apart in the source and are kept apart here.

Key:
[1] = Solubility studies in lipid-based formulations (MCT, LCM) at different temperatures; assay type: physicochemical; settings: for solubility: oil or lipid, thermodynamic from solid, n = 3, mean ± SD
Procedure: In the case that the added compound was dissolved during incubation, more compound was added. After incubation, the samples were centrifuged in an Eppendorf centrifuge 5430R (Hamburg, Germany) for 30 min at 17,500 rpm (=30,130 rcf) at either 20 °C (samples incubated at ambient temperature), 37 °C (samples incubated at 37 °C), or 40 °C (samples incubated at 60 °C). The supernatant was diluted and further analyzed by UPLC-UV, as described below.
The supernatants obtained from the solubility studies were diluted 1:50 with tetrahydrofuran, which was further diluted 1:100 with acetonitrile. […] This final dilution was analyzed by using an Acquity (UPLC™) H-class system composed of a quaternity solvent manager, a photodiode array (PDA) detector, a sample manager, and the Empower® software (version 3.0) for data processing. For the chromatographic analysis, a reversed-phase Waters Acquity BEH C18 with a 50 mm × 2.1 mm column (particle size 1.7 μm) including a precolumn (Waters Acquity BEH C18, 5 mm * 2.1 mm, particle size 1.7 μm) (Waters, Milford, CT, USA) was used.
The statistical analysis was performed using GraphPad Prism, Version 9.5.1.

[2] = for Stability: celecoxib in LCM
[3] = MCT and LCM formulations, polarized light, Figure 1A-D
Source text: For selected samples where precipitation was visible, a few droplets (enough volume to cover the area of a quartz microscope slide covered by a cover slip) were taken from the middle of the vial using a plastic pipette, and the crystallinity was confirmed by using a ZEISS Axio Vert.A1 microscope with polarized light function (Jena, Germany).

[4] = cited from earlier work
[5] = cited from earlier work; for Drug load, % of the equilibrium solubility at 37 °C: supersaturated type I and type II LBFs
mice = system: mice; set-up: method as in PMID 33387565; settings: doses of 1000–4000 ppm DCM; cited from earlier work
rats = system: rats; set-up: method as in PMID 33387565; settings: doses of 1000–4000 ppm DCM; cited from earlier work
hamsters = system: hamsters; set-up: method as in PMID 33387565; settings: doses of 1000–4000 ppm DCM; cited from earlier work

## Cc1ccc(-c2cc(C(F)(F)F)nn2-c2ccc(S(N)(=O)=O)cc2)cc1 [Celecoxib, celecoxib]
[1]; LCM
  Ratio of solubility 60 °C/Ambient temperature: 2.38 ± 0.04
[1]; MCT
  Ratio of solubility 60 °C/Ambient temperature: 1.85 ± 0.03
[1]; long-chain monoglyceride (Maisine CC), Maisine CC, 37 °C, read-out: Solubility LCM
  solubility: 15.57 ± 0.09 mg/mL (≈ 40.8 mM)
[1]; long-chain monoglyceride (Maisine CC), Maisine CC, 60 °C, read-out: Solubility LCM
  solubility: 24.6 ± 0.36 mg/mL (≈ 64.4 mM)
[1]; long-chain monoglyceride (Maisine CC), Maisine CC, ambient temperature (~21 °C), read-out: Solubility LCM
  solubility: 10.34 ± 0.08 mg/mL (≈ 27.1 mM)
[1]; medium-chain triglyceride (Labrafac Lipophile WL1349), medium-chain triglyceride, 37 °C, read-out: Solubility MCT
  solubility: 11.3 ± 0.05 mg/mL (≈ 29.6 mM)
[1]; medium-chain triglyceride (Labrafac Lipophile WL1349), medium-chain triglyceride, 60 °C, read-out: Solubility MCT
  solubility: 14.3 ± 0.25 mg/mL (≈ 37.5 mM)
[1]; medium-chain triglyceride (Labrafac Lipophile WL1349), medium-chain triglyceride, ambient temperature (~21 °C), read-out: Solubility MCT
  solubility: 7.72 ± 0.16 mg/mL (≈ 20.2 mM)
[1]; range over MCT and LCM
  Supersaturation ratio between 60 °C and ambient temperature: 1.85–2.38
[1]; supersaturation induced by heat (60 °C)
  Drug load relative to the solubility at ambient temperature: 238%
[2]; celecoxib content of 371% or higher, both vehicles, stored at ambient
  Precipitation: visible precipitation already within a timeframe of a few days
[2]; DCM 1 + 2, stored at ambient
  Stability: 7 to 14 days
[2]; DCM 1 + 4, stored at ambient, n = 1
  Stability: 7 to 14 days
[2]; solvent-based approach, DCM evaporation
  Drug load relative to the solubility at ambient temperature: up to 475%
[3]
  Solid state of the precipitate from the formulations: crystalline
[4]
  log P: 4.3
[5]; heat-induced supersaturated type I and type II LBFs, in most cases
  Time to precipitation: ≤ 14 days
[5]
  Drug load, % of the equilibrium solubility at 37 °C: ≤ 136%

## ClCCl [DCM, dichloromethane]
mice
  Risk for malignant tumors: increased risk for malignant tumors
rats
  Risk for malignant tumors: not in rats and hamsters
hamsters
  Risk for malignant tumors: not in rats and hamsters

## CC(C)OC(=O)C(C)(C)Oc1ccc(C(=O)c2ccc(Cl)cc2)cc1 [Fenofibrate, fenofibrate]
[5]; heat-induced supersaturated LBF of MCT and phospholipids, prepared at 65 °C, stored at 20–23 °C
  Time of storage to crystallization: nine weeks

## C(=C\c1ccccc1)/CN1CCN(C(c2ccccc2)c2ccccc2)CC1 [cinnarizine]
[5]
  Drug load, % of the equilibrium solubility at 37 °C: up to 138%

## CC(C)Cc1ccc(C(C)C(=O)O)cc1 (stereo not drawn) [ibuprofen]
[5]; some ibuprofen-loaded solid LBFs
  Time stable: up to 9 months
